Type in all cases: cell-based, human
Assay [1] concerns HLA-A2.1 restricted melanoma specific CTL lines (VMM5, VMM6, DM169-13, DM204-13, LD1). The experiment in a line: Chromium release assay, peptide-preincubated T2 cells, panel of HLA-A2.1 restricted melanoma specific CTL lines from different patients. Particulars: for activity in reconstituting recognition by CTL lines from 3 additional patients: at equal or higher concentrations than 946 (0.1-1 nM). The method, then:
Cell-mediated killing was determined in vitro using a 4-h chromium release assay. 51Cr-labeled target cells were plated at 2×10^3 cells/well in triplicate on 96-well V-bottom plates (Costar, Cambridge, Mass.) with varying numbers of effector cells in a final volume of 250 microl. Wells containing either culture medium and target cells only or 1 M HCl and target cells served as background 51Cr release controls and total release controls, respectively. The plates were centrifuged at 100×g for 3 min and incubated at 37° C. in 5% CO2 for 4 h. The plates were again centrifuged, and 0.20 ml of medium from each well was removed for counting in a gamma counter. The cytotoxic index was calculated as: [formula] […] Effector cells were added in 100 microl assay medium to give an E:T ratio of 10:1, and were incubated at 37° C. The remainder of the assay is performed as in standard chromium release assays described above. Wells containing peptide and target cells but no CTL were used as controls to rule out toxicity of the peptides themselves. […] To determine whether peptide 946 was a generally relevant epitope for HLA-A2.1 restricted melanoma specific CTL, lines from 3 additional patients were tested. CTL lines VMM5 and VMM6 were generated by stimulation with autologous tumor. VMM5 CTL were maintained on allogeneic A2.1^+ melanoma DM6 after specificity was obtained, C. L. Slingluff Jr. et al., J. Immunol. 150, 2955 (1993). DM169-13 and DM204-13 CTL were generated by stimulation with allogeneic A2.1^+ melanoma DM13, N. J. Crowley et al., J. Immunol. 146, 1692 (1991), then maintained with DM6. LD1 CTL were stimulated on a rotating schedule of stimulating logeneic A2.1^+ melanomas DM6, DM13, and DM93. DM93 is an HLA-A2.1^+ melanoma used as a positive control. […] T2 cells were preincubated with the peptides whose (M+H)^+ values are indicated in the legend, FIG. 12. […] All other peptides were used at a concentration of 10 nM except 250 nM for DM169 and 0.1 nM for LD1. Asterisks (*) mark peptides not evaluated. The sequences of the peptides 864 (Seq. ID No. 88), 946 (Seq. ID No. 39), 1046 (Seq. ID No. 89) are described in the text. Peptide 1030 has the sequence […] (SEQ ID NO:90), (related to peptide from tyrosinase. molecule). […] An additional peptide Try […] (SEQ ID NO 96), which originates from tyrosinase and had been identified by Boon and colleagues as an HLA-A2.1 restricted melanoma specific T cell epitope, was also evaluated. None of 4 CTL lines recognized cells incubated with this peptide.

Assay [2] has as its system melanoma specific CTL DM204-13. The experiment in a line: Reconstitution of melanoma-specific CTL epitope on peptide-pulsed 51Cr-labelled T2 cells, chromium release assay, DM204-13 CTL. The following applies: for effect on epitope reconstitution: concentrations up to 10 nM. Here is the method:
(§1) Cell-mediated killing was determined in vitro using a 4-h chromium release assay. 51Cr-labeled target cells were plated at 2×10^3 cells/well in triplicate on 96-well V-bottom plates (Costar, Cambridge, Mass.) with varying numbers of effector cells in a final volume of 250 microl. Wells containing either culture medium and target cells only or 1 M HCl and target cells served as background 51Cr release controls and total release controls, respectively. The plates were centrifuged at 100×g for 3 min and incubated at 37° C. in 5% CO2 for 4 h. The plates were again centrifuged, and 0.20 ml of medium from each well was removed for counting in a gamma counter. The cytotoxic index was calculated as: [formula] […] Effector cells were added in 100 microl assay medium to give an E:T ratio of 10:1, and were incubated at 37° C. The remainder of the assay is performed as in standard chromium release assays described above. Wells containing peptide and target cells but no CTL were used as controls to rule out toxicity of the peptides themselves. […] HLA-A2.1 molecules were immunoaffinity purified from detergent lysates of the human melanoma cell line DM6. The associated peptides were released by acid extraction, separated from HLA-A2.1 and antibody by filtration, and fractionated by multiple stages of HPLC. […] L. Slingluff Jr., et al, J. Immunol. (1993) […], 2955, by using a gradient of acetonitrile/0.085% trifluoroacetic acid (TFA) in 0.1% TFA with acetonitrile increasing from 0 to 9% (0-5 min), 9 to 36%(5-55min), 36 to 60% (55-62min) (v/v), collecting one-minute fractions. In FIG. 8B Fractions 2 and 3 from the separation shown in panel A were pooled and rechromatographed with a 55 minute gradient of 0 to 30% acetonitrile/0.1% heptafluorobutyric acid (HFBA) in 0.1% HFBA, collecting one-minute fractions. For both panels, peptide fractions were incubated for 2-3 h with 2×10^3 51Cr-labelled T2 cells in 150 ll assay media per well in 96-well plates. […]

Assay [3] relates to melanoma specific CTL VMM5. Put plainly: Reconstitution of melanoma-specific CTL epitope on peptide-pulsed 51Cr-labelled T2 cells, chromium release assay, VMM5 CTL. The following applies: for effect on epitope reconstitution: concentrations up to 10 nM. Here is the method:
as §1

The mark [4] stands for this setting: T2 cells, synthetic peptide with equimolar Leu/Ile at X, read-out: half-maximal reconstitution of the epitope.

The results in this text go back to patent US6660276B1, “Peptides recognized by melanoma-specific cytotoxic lymphocytes, and uses therefor” (The University of Virginia Patent Foundation, priority 1994, dated 2003).

Where no end group is shown, it is not given here.

With “Ala Xaa Tyr Asp Ala Thr Tyr Glu Thr [Peptide 1046]”, the “activity in reconstituting recognition by CTL lines from 3 additional patients” value in assay [1] was “neither 864 nor 1046 had any detectable activity”. Besides, the “effect on epitope reconstitution” value in assay [2] and in assay [3] was “no effect” each time.

In the case of SMAPGNTSV [Peptide 864], the “activity in reconstituting recognition by CTL lines from 3 additional patients” value in assay [1] is reported as “neither 864 nor 1046 had any detectable activity”. Also, the “effect on epitope reconstitution” value in assay [2] and in assay [3] was “no effect” throughout.

Take “Try Met Asn Gly Thr Met Ser Gln Val (YMNGTMSQV) [SEQ ID NO 96, originates from tyrosinase, reference compound]”: the “CTL lines that recognized cells incubated with the peptide” value in assay [1] (4 CTL lines tested) is listed as “None of 4”.

For the substance “Tyr Xaa Glu Pro Gly Pro Val Thr Ala [Peptide 946]”, the EC50 in assay [1] (dose response curves for two of the 3 additional CTL lines, read-out: half-maximal lysis) fell in the range of 1 to 10 pM; in assay [2] (setting [4]) it was 1 to 10 pM; in assay [3] (setting [4]) it was 1 to 10 pM. For the same substance, in assay [1] (five melanoma-specific CTL lines from five patients), the “patients / CTL lines whose T-cells recognized the HLA-A2.1-associated peptide” value is 5 out of 5 and all five lines recognize. Moreover, the “reconstitution of recognition by CTL lines from 3 additional patients” value in assay [1] (peptide at 0.1-1 nM, T2 cells, FIG. 12) is listed as “reconstituted recognition”.
